# Laboratory results: PubChem BioAssay AID1963874 (Molecular Pharmacology Branch, DTP, NCI, 2024)
# Test system: 253994-281-T-J1-PDC KRAS-mutant spheroids with HUVEC/MSC, viability
# Experiment: Anticancer human tumor 253994-281-T-J1-PDC patient-derived colorectal carcinoma cell line growth inhibition [KRAS2]
# Conditions: for IC50: curve of first compound; for viability, T/C: stronger effect = lower value
# How it was run: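 KRAS-mutant tumor cells were grown as spheroids with HUVEC endothelial cells and human MSCs as stroma. Targeted agents were tested alone and with KRAS pathway inhibitors. Doses started at or near clinical Cmax, or 10 microM, descending half-log.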
# [1] = second compound 0.1 µM, first compound 0.000316 µM
# [2] = second compound 0.1 µM, first compound 0.001 µM
# [3] = second compound 0.1 µM, first compound 0.00316 µM
# [4] = second compound 0.1 µM, first compound 0.01 µM
# [5] = second compound 0.1 µM, first compound 0.0316 µM
# [6] = second compound 0.1 µM, first compound 0.1 µM
# [7] = second compound 0.316 µM, first compound 0.000316 µM
# [8] = second compound 0.316 µM, first compound 0.001 µM
# [9] = second compound 0.316 µM, first compound 0.00316 µM
# [10] = second compound 0.316 µM, first compound 0.01 µM
# [11] = second compound 0.316 µM, first compound 0.0316 µM
# [12] = second compound 0.316 µM, first compound 0.1 µM
# [13] = second compound 1 µM, first compound 0.000316 µM
# [14] = second compound 1 µM, first compound 0.001 µM
# [15] = second compound 1 µM, first compound 0.00316 µM
# [16] = second compound 1 µM, first compound 0.01 µM
# [17] = second compound 1 µM, first compound 0.0316 µM
# [18] = second compound 1 µM, first compound 0.1 µM
# [19] = second compound 3.16 µM, first compound 0.000316 µM
# [20] = second compound 3.16 µM, first compound 0.001 µM
# [21] = second compound 3.16 µM, first compound 0.00316 µM
# [22] = second compound 3.16 µM, first compound 0.01 µM
# [23] = second compound 3.16 µM, first compound 0.0316 µM
# [24] = second compound 3.16 µM, first compound 0.1 µM
# [25] = second compound 10 µM, first compound 0.0316 µM
# [26] = second compound 10 µM, first compound 0.1 µM
# [27] = second compound 0.0316 µM, first compound 0.0316 µM
# [28] = second compound 0.1 µM, first compound 0.316 µM
# [29] = second compound 0.1 µM, first compound 1 µM
# [30] = second compound 0.1 µM, first compound 3.16 µM
# [31] = second compound 0.1 µM, first compound 10 µM
# [32] = second compound 0.316 µM, first compound 0.316 µM
# [33] = second compound 0.316 µM, first compound 1 µM
# [34] = second compound 0.316 µM, first compound 3.16 µM
# [35] = second compound 0.316 µM, first compound 10 µM
# [36] = second compound 1 µM, first compound 0.316 µM
# [37] = second compound 1 µM, first compound 1 µM
# [38] = second compound 1 µM, first compound 3.16 µM
# [39] = second compound 1 µM, first compound 10 µM
# [40] = second compound 3.16 µM, first compound 0.316 µM
# [41] = second compound 3.16 µM, first compound 1 µM
# [42] = second compound 3.16 µM, first compound 3.16 µM
# [43] = second compound 3.16 µM, first compound 10 µM
# [44] = second compound 10 µM, first compound 0.316 µM
# [45] = second compound 10 µM, first compound 1 µM
# [46] = second compound 10 µM, first compound 3.16 µM
# [47] = second compound 10 µM, first compound 10 µM
# 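Note: spheroids exposed to agents for seven days before readout.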
# 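Throughout, for viability, T/C: percent of DMSO vehicle control viability.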
structure (smiles),measurement,setting,value
CC(C)n1nc(-c2ccc3oc(N)nc3c2)c2c(N)ncnc21 + CC1OCC2(CCN(c3cnc(Sc4ccnc(N)c4Cl)c(N)n3)CC2)C1N,IC50,second compound 0.1 µM,> 0.1 µM
same,IC50,second compound 0.316 µM,> 0.1 µM
same,IC50,second compound 1 µM,0.0876 µM
same,IC50,second compound 3.16 µM,0.0177 µM
same,IC50,second compound 10 µM,< 0.000316 µM
same,"viability, T/C",[1],97.9%
same,"viability, T/C",[2],100%
same,"viability, T/C",[3],101%
same,"viability, T/C",[4],81%
same,"viability, T/C",[5],76.5%
same,"viability, T/C",[6],56.9%
same,"viability, T/C",[7],93.6%
same,"viability, T/C",[8],76.7%
same,"viability, T/C",[9],78.9%
same,"viability, T/C",[10],77.7%
same,"viability, T/C",[11],68.5%
same,"viability, T/C",[12],49.8%
same,"viability, T/C",[13],85.3%
same,"viability, T/C",[14],73.2%
same,"viability, T/C",[15],82.8%
same,"viability, T/C",[16],67.8%
same,"viability, T/C",[17],57.6%
same,"viability, T/C",[18],49.4%
same,"viability, T/C",[19],62%
same,"viability, T/C",[20],64.6%
same,"viability, T/C",[21],67.3%
same,"viability, T/C",[22],55.2%
same,"viability, T/C",[23],44%
same,"viability, T/C",[24],36.5%
same,"viability, T/C","second compound 10 µM, first compound 0.000316 µM",40.1%
same,"viability, T/C","second compound 10 µM, first compound 0.001 µM",40.7%
same,"viability, T/C","second compound 10 µM, first compound 0.00316 µM",43.2%
same,"viability, T/C","second compound 10 µM, first compound 0.01 µM",44.5%
same,"viability, T/C",[25],39.2%
same,"viability, T/C",[26],28.2%
CC(=O)Nc1cccc(-n2c(=O)n(C3CC3)c(=O)c3c(Nc4ccc(I)cc4F)n(C)c(=O)c(C)c32)c1 + C=CC(=O)N1CCN(c2nc(OCC3CCCN3C)nc3c2CCN(c2cccc4cccc(C)c24)C3)CC1CC#N,IC50,second compound 0.0316 µM,0.00157 µM
same,IC50,second compound 0.1 µM,0.00098 µM
same,IC50,second compound 0.316 µM,0.00066 µM
same,IC50,second compound 1 µM,0.000616 µM
same,IC50,second compound 3.16 µM,< 0.0001 µM
same,"viability, T/C","second compound 0.0316 µM, first compound 0.0001 µM",86.7%
same,"viability, T/C","second compound 0.0316 µM, first compound 0.000316 µM",84.6%
same,"viability, T/C","second compound 0.0316 µM, first compound 0.001 µM",66%
same,"viability, T/C","second compound 0.0316 µM, first compound 0.00316 µM",24.7%
same,"viability, T/C","second compound 0.0316 µM, first compound 0.01 µM",12%
same,"viability, T/C",[27],6.91%
same,"viability, T/C","second compound 0.1 µM, first compound 0.0001 µM",72.5%
same,"viability, T/C",[1],76.9%
same,"viability, T/C",[2],47%
same,"viability, T/C",[3],22.2%
same,"viability, T/C",[4],14.6%
same,"viability, T/C",[5],6.68%
same,"viability, T/C","second compound 0.316 µM, first compound 0.0001 µM",74.9%
same,"viability, T/C",[7],64.7%
same,"viability, T/C",[8],41.4%
same,"viability, T/C",[9],20.9%
same,"viability, T/C",[10],9.84%
same,"viability, T/C",[11],4.12%
same,"viability, T/C","second compound 1 µM, first compound 0.0001 µM",78.9%
same,"viability, T/C",[13],68%
same,"viability, T/C",[14],34.6%
same,"viability, T/C",[15],23.4%
same,"viability, T/C",[16],8.81%
same,"viability, T/C",[17],4.05%
same,"viability, T/C","second compound 3.16 µM, first compound 0.0001 µM",23.4%
same,"viability, T/C",[19],11.8%
same,"viability, T/C",[20],31.7%
same,"viability, T/C",[21],3.64%
same,"viability, T/C",[22],0.37%
same,"viability, T/C",[23],1.21%
O=C(c1cc(Cc2n[nH]c(=O)c3ccccc23)ccc1F)N1CCN(C(=O)C2CC2)CC1 + C=CC(=O)N1CCN(c2nc(=O)n(-c3c(C)ccnc3C(C)C)c3nc(-c4c(O)cccc4F)c(F)cc23)C(C)C1,IC50,second compound 0.1 µM,> 10 µM
same,IC50,second compound 0.316 µM,> 10 µM
same,IC50,second compound 1 µM,> 10 µM
same,IC50,second compound 3.16 µM,> 10 µM
same,IC50,second compound 10 µM,> 10 µM
same,"viability, T/C",[5],101%
same,"viability, T/C",[6],93%
same,"viability, T/C",[28],102%
same,"viability, T/C",[29],94.9%
same,"viability, T/C",[30],95%
same,"viability, T/C",[31],82.2%
same,"viability, T/C",[11],95.7%
same,"viability, T/C",[12],105%
same,"viability, T/C",[32],84.8%
same,"viability, T/C",[33],101%
same,"viability, T/C",[34],92.4%
same,"viability, T/C",[35],90.3%
same,"viability, T/C",[17],88.6%
same,"viability, T/C",[18],91%
same,"viability, T/C",[36],83%
same,"viability, T/C",[37],97.2%
same,"viability, T/C",[38],103%
same,"viability, T/C",[39],96.7%
same,"viability, T/C",[23],107%
same,"viability, T/C",[24],97.8%
same,"viability, T/C",[40],113%
same,"viability, T/C",[41],98%
same,"viability, T/C",[42],97.8%
same,"viability, T/C",[43],91.8%
same,"viability, T/C",[25],117%
same,"viability, T/C",[26],105%
same,"viability, T/C",[44],89.4%
same,"viability, T/C",[45],89.5%
same,"viability, T/C",[46],112%
same,"viability, T/C",[47],93.5%
Cn1nccc1Nc1nccc(-c2cc3c(s2)C(C)(C)N(CCN2CCOCC2)C3=O)n1 + C=CC(=O)N1CCN(c2nc(OCC3CCCN3C)nc3c2CCN(c2cccc4cccc(C)c24)C3)CC1CC#N,IC50,second compound 0.0316 µM,4.45 µM
same,IC50,second compound 0.1 µM,2.63 µM
same,IC50,second compound 0.316 µM,2.15 µM
same,IC50,second compound 1 µM,3.04 µM
same,IC50,second compound 3.16 µM,0.181 µM
same,"viability, T/C",[27],92.7%
same,"viability, T/C","second compound 0.0316 µM, first compound 0.1 µM",99%
same,"viability, T/C","second compound 0.0316 µM, first compound 0.316 µM",89.1%
same,"viability, T/C","second compound 0.0316 µM, first compound 1 µM",72.4%
same,"viability, T/C","second compound 0.0316 µM, first compound 3.16 µM",62.2%
same,"viability, T/C","second compound 0.0316 µM, first compound 10 µM",28%
same,"viability, T/C",[5],92.3%
same,"viability, T/C",[6],96.3%
same,"viability, T/C",[28],88.7%
same,"viability, T/C",[29],73.5%
same,"viability, T/C",[30],45.6%
same,"viability, T/C",[31],29.4%
same,"viability, T/C",[11],95.5%
same,"viability, T/C",[12],103%
same,"viability, T/C",[32],96.7%
same,"viability, T/C",[33],67.4%
same,"viability, T/C",[34],43.1%
same,"viability, T/C",[35],30.4%
same,"viability, T/C",[17],107%
same,"viability, T/C",[18],98.9%
same,"viability, T/C",[36],73.9%
same,"viability, T/C",[37],80.3%
same,"viability, T/C",[38],44.6%
same,"viability, T/C",[39],27.4%
same,"viability, T/C",[23],64%
same,"viability, T/C",[24],53.6%
same,"viability, T/C",[40],45.2%
same,"viability, T/C",[41],20.8%
same,"viability, T/C",[42],4.92%
same,"viability, T/C",[43],1.02%
COC(=O)c1ccc2c(C(=Nc3ccc(N(C)C(=O)CN4CCN(C)CC4)cc3)c3ccccc3)c(O)[nH]c2c1,"viability, T/C",compound 0.0316 µM,96.2% [middle of 5 runs]
same,"viability, T/C",compound 0.1 µM,90.5% [middle of 5 runs]
same,"viability, T/C",compound 0.316 µM,95% [middle of 5 runs]
same,"viability, T/C",compound 1 µM,92.3% [middle of 5 runs]
same,"viability, T/C",compound 3.16 µM,85.9% [middle of 5 runs]
COc1cc(Nc2ncc3c(n2)-c2ccc(Cl)cc2C(c2c(F)cccc2OC)=NC3)ccc1C(=O)O + CC1OCC2(CCN(c3cnc(Sc4ccnc(N)c4Cl)c(N)n3)CC2)C1N,IC50,second compound 0.1 µM,< 0.0316 µM
same,IC50,second compound 0.316 µM,< 0.0316 µM
same,IC50,second compound 1 µM,< 0.0316 µM
same,IC50,second compound 3.16 µM,< 0.0316 µM
same,IC50,second compound 10 µM,< 0.0316 µM
same,"viability, T/C",[5],51%
same,"viability, T/C",[6],25.3%
same,"viability, T/C",[28],24.6%
same,"viability, T/C",[29],28.7%
same,"viability, T/C",[30],40.4%
same,"viability, T/C",[31],42.6%
same,"viability, T/C",[11],34.6%
same,"viability, T/C",[12],21.5%
same,"viability, T/C",[32],22%
same,"viability, T/C",[33],26%
same,"viability, T/C",[34],25.8%
same,"viability, T/C",[35],23.7%
same,"viability, T/C",[17],23.4%
same,"viability, T/C",[18],16.7%
same,"viability, T/C",[36],17.7%
same,"viability, T/C",[37],19.6%
same,"viability, T/C",[38],18.7%
same,"viability, T/C",[39],20.1%
same,"viability, T/C",[23],19.5%
same,"viability, T/C",[24],14.2%
same,"viability, T/C",[40],14.1%
same,"viability, T/C",[41],18.5%
same,"viability, T/C",[42],14.2%
same,"viability, T/C",[43],21%
same,"viability, T/C",[25],13.3%
same,"viability, T/C",[26],12.5%
same,"viability, T/C",[44],10.3%
same,"viability, T/C",[45],9.72%
same,"viability, T/C",[46],10.8%
same,"viability, T/C",[47],9.48%
